Test results reported in BindingDB's records for doi:10.7270/Q2HQ3XCR (Nmmlsc, 2009).

Each compound was assayed against T1, Bcl-2-related protein A1 (Homo sapiens, UniProt Q16548) (assay: Bfl-1/Bim complex disruptors – biochemical, multiplexed, bead-based flow cytometry, HTS hits, confirmation (AID 2080)). Conditions: not given.
T1 sequence (Q16548 whole entry): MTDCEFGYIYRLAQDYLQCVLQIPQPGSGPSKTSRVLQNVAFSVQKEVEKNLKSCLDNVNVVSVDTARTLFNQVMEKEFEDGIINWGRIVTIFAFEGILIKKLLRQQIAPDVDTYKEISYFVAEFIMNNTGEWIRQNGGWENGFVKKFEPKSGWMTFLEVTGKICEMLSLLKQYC

SMILES | EC50 [µM]
O=C1C(Cl)=C(N2CCN(c3ccccc3[N+](=O)[O-])CC2)C(=O)c2ccccc21 | 2.68
O=c1[nH]c(O)c(Cc2ccc(-c3cc(Cl)ccc3[N+](=O)[O-])o2)c(=O)[nH]1 | 0.81
O=C(NCc1ccccc1)c1ccc2nc(-c3ccco3)c(-c3ccco3)nc2c1 [2,3-bis(furan-2-yl)-N-(phenylmethyl)quinoxaline-6-carboxamide] | 8.1
Cc1nnc(Sc2cc(NCCO)c([N+](=O)[O-])c3nonc23)s1 [2-[[7-[(5-methyl-1,3,4-thiadiazol-2-yl)thio]-4-nitro-2,1,3-benzoxadiazol-5-yl]amino]ethanol] | 0.82
Cc1ccc(-c2cc(-c3ccc(C)o3)nc(N)c2C#N)cc1 [2-amino-6-(5-methylfuran-2-yl)-4-(4-methylphenyl)pyridine-3-carbonitrile] | 5.44
Cc1cc(-c2cc(-c3ccc(Cl)cc3)nc(N)c2C#N)co1 [2-azanyl-6-(4-chlorophenyl)-4-(5-methylfuran-3-yl)pyridine-3-carbonitrile] | 4.92
COc1ccc(N2C(=O)C(Cl)=C(Oc3cccc(OC)c3)C2=O)cc1 [3-chloro-4-(3-methoxyphenoxy)-1-(4-methoxyphenyl)-1H-pyrrole-2,5-dione] | 1.06
CNC(CC(=O)c1ccc([N+](=O)[O-])cc1)C(Cl)(Cl)Cl (configuration not stated) [4,4,4-Trichloro-3-methylamino-1-(4-nitro-phenyl)-butan-1-one] | 3.97
C=CS(=O)(=O)c1sc(Cl)c(N2CCOCC2)c1[N+](=O)[O-] [4-(2-chloranyl-5-ethenylsulfonyl-4-nitro-thiophen-3-yl)morpholine] | 3.57
COc1cc(/N=C2\SSNC2Cl)c(OC)cc1Cl (configuration not stated) [4-chloro-N-(4-chloro-2,5-dimethoxyphenyl)-5-dithiazolidinimine] | 5.78
O=[N+]([O-])c1c(NCCCO)cc(Sc2nc3ccccc3s2)c2nonc12 [MLS000520994] | 0.26
CN(CCO)c1cc(Sc2nc3ccccc3s2)c2nonc2c1[N+](=O)[O-] [MLS000520995] | 0.72
CC(=O)OCCCNc1cc(Sc2nc3ccccc3s2)c2nonc2c1[N+](=O)[O-] [MLS000521052] | 0.17
CC(=O)Nc1ccc(-n2cc(-c3ccccc3)[nH]c2=S)cc1 [MLS001001946] | 2.05
COc1ccccc1-n1c(-c2ccccc2)c[nH]c1=S [MLS001007615] | 1.23
COc1ccccc1NC1=C(NC(C)=O)C(=O)c2ccccc2C1=O [N-[3-(2-methoxyanilino)-1,4-dioxonaphthalen-2-yl]acetamide] | 1.84
O=C(Nc1nnc(COc2ccc(Cl)cc2)s1)c1ccco1 [N-[5-[(4-chloranylphenoxy)methyl]-1,3,4-thiadiazol-2-yl]furan-2-carboxamide] | 3.09
Cc1cc2nn(-c3cccc4ccccc34)nc2cc1N [SMR000076237] | 1.51
S=c1[nH]cc(-c2ccccc2)n1-c1ccccc1 [SMR000196363] | 3
CCN1C(=O)/C(=C\C=C2/C=CC=CN2CC)SC1=S [SMR000225150] | 2.32
Oc1ccc(NCc2ccccc2OCc2ccccc2)cc1 [SMR000231540] | 8.06

Same assay, conditions: inactive by the depositor's call

SMILES | EC50 [µM]
Cc1ccc(-c2cc(-c3ccc(F)cc3)c(C#N)c(N)n2)o1 | 20
CCN(CC)c1ccc(NC(=O)c2ccccc2Br)cc1S(=O)(=O)Nc1ccccc1OC | 10.7
O=C1C(=Cc2ccco2)NC(=S)N1c1ccccc1 [(5E)-5-(furan-2-ylmethylidene)-3-phenyl-2-sulfanylideneimidazolidin-4-one] | 17.4
Clc1nc(NCc2cccnc2)nc(N2CCOCC2)n1 [MLS000121154] | 20
COc1ccc(CCNC(=O)c2ccc3nc(-c4ccco4)c(-c4ccco4)nc3c2)cc1OC [N-[2-(3,4-dimethoxyphenyl)ethyl]-2,3-di-2-furylquinoxaline-6-carboxamide] | 15.4
CCN(CC)c1ccc(NC(=O)c2ccccc2F)cc1S(=O)(=O)Nc1ccccc1OC [SMR000241522] | 25.8
